For 22 molecules, IC50 results are on record in patent publication US11964988B2, “Fused heterocyclic compounds as RET kinase inhibitors” (ARRAY BIOPHARMA INC., priority 2018, dated 2024).

pIC50: −log10 of the molar value.

One experiment deals with RET kinase V804M (Homo sapiens, UniProt P07949, V804M). Description: RET Enzyme Assay (CisBio HTRF KinEASE-TK), V804M. The conditions noted are these: read-out: RET V804M Enz FRET IC50. Format: biochemical.
The next experiment addresses G810S mutant RET kinase (Homo sapiens, UniProt P07949, G810S). Description: biochemical.
The target in another experiment is RET kinase Wild Type (Homo sapiens, UniProt P07949). Description: biochemical.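 Note: HTRF kinase activity assay on RET enzyme, 1 h reaction at 22 °C, dual-wavelength readout as percent of control, DMSO-only wells as 100%, pre-quenched reactions as 0%.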
Sequence of RET kinase Wild Type (P07949 29-1114): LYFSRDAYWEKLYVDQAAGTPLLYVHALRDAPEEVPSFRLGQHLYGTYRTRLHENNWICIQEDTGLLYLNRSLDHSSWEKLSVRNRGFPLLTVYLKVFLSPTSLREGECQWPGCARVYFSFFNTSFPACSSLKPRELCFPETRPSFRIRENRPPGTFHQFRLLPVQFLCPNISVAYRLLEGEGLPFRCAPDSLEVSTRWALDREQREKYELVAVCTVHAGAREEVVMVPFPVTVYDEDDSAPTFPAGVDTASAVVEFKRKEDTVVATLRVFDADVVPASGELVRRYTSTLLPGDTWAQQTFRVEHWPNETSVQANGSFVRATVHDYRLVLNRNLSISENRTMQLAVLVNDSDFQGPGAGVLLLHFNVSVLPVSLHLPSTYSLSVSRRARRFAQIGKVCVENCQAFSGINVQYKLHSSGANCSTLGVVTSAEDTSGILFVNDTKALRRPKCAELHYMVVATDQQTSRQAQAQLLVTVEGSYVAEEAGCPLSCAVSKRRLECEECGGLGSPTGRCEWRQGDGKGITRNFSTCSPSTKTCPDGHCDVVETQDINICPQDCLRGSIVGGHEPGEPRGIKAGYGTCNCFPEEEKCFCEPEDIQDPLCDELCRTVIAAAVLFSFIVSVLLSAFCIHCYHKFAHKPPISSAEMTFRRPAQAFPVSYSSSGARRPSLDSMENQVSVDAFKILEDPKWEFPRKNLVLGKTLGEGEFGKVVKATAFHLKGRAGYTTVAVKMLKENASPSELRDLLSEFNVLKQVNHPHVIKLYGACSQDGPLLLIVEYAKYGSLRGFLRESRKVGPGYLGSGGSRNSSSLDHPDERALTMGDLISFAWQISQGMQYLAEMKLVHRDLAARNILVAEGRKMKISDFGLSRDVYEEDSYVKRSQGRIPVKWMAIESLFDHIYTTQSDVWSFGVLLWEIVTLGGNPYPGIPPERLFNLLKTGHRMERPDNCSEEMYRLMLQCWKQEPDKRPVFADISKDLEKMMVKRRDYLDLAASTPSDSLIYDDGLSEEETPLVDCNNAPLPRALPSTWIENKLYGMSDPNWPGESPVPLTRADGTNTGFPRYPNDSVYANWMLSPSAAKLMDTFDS
In another experiment the target is G810R mutant RET kinase (Homo sapiens, UniProt P07949, G810R). Nature of the experiment: biochemical.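 Note: HTRF KinEASE-TK enzymatic assay with 1 nM recombinant RET G810R, 1 h at 22 °C, dual-wavelength ratiometric readout, 100% control without compound, 0% from pre-quenched reactions.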
Sequence of G810R mutant RET kinase (P07949 29-1114 G810R): as the sequence (P07949 29-1114) above, with G782R counted along it

Sequence of RET kinase V804M (P07949 29-1114 V804M): as the sequence (P07949 29-1114) above, with V776M counted along it
Sequence of G810S mutant RET kinase (P07949 29-1114 G810S): as the sequence (P07949 29-1114) above, with G782S counted along it
Protocol for G810R mutant RET kinase: (§1) The potency of compounds inhibiting several different RET kinase forms (Wild Type, V804M, G810R, & G810S) were determined using CisBio's HTRF® KinEASE™-TK assay technology. […] After a 1 hour incubation at 22° C., the extent of reaction was determined using a PerkinElmer EnVision multimode plate reader via HTRF dual wavelength detection, and the percent of control (POC) was calculated using a ratiometric emission factor. One hundred POC was determined using DMSO only samples (no compound present), and 0 POC was determined using pre-quenched control reactions.
(§2) The potency of a compound inhibiting G810R or G810S mutant RET kinase was determined using CisBio's HTRF® KinEASE™-TK assay technology. The assays contained G810R or G810S mutant RET produced at Array Biopharma, Inc. (1 nM enzyme). […] After a 1-h incubation at 22° C., the extent of reaction was determined using a PerkinElmer EnVision multimode plate reader via HTRF dual wavelength detection, and the percent of control (POC) was calculated using a ratiometric emission factor. One hundred POC was determined using no test compounds, and 0 POC was determined using pre-quenched control reactions.
Protocol for G810S mutant RET kinase: as §1, §2

With `CC(C)n1c2c(c3c(N)ncnc31)-c1noc(C3CC3)c1C(=O)N(CCc1cnn(C)c1)C2` [Example 16, 11-amino-3-cyclopropyl-7-isopropyl-5-(2-(1-methyl-1H-pyrazol-4-yl)ethyl)-6,7-dihydroisoxazolo[4,3-c]pyrimido[5′,4′:4,5]pyrrolo[3,2-e]azepin-4(5H)-one], the negative-log IC50 (pIC50) at RET kinase V804M is 5.75; against G810S mutant RET kinase, 6.19; at RET kinase Wild Type it was 6.69; against G810R mutant RET kinase it was 6.45.
Regarding `CO[C@H]1CCc2c(c3c(N)ncnc3n2C(C)C)-c2noc(C3CC3)c21` (single isomer, unassigned) [Example 59], the pIC50 at RET kinase V804M was 6.13; at G810S mutant RET kinase, 6.07; on RET kinase Wild Type it was 6.56; against G810R mutant RET kinase, 6.51.
The like results for `CC(C)n1c2c(c3c(N)ncnc31)-c1noc(C3CC3)c1C(=O)N(C1CCN(Cc3ccccc3)C1)C2` (centres unmarked) [Example 17, 11-amino-5-(1-benzylpyrrolidin-3-yl)-3-cyclopropyl-7-isopropyl-6,7-dihydroisoxazolo[4,3-c]pyrimido[5′,4′:4,5]pyrrolo[3,2-e]azepin-4(5H)-one] were, in that order, 6.62, 6.36, 7.31 and 6.27.
The like results for `COc1ccc(-n2c3c(c4c(N)ncnc42)-c2noc(C4CC4)c2C(O)CC3)cn1` (centres unmarked) [Example 114, 11-Amino-3-cyclopropyl-7-(6-methoxypyridin-3-yl)-4,5,6,7-tetrahydroisoxazolo[4″,3″:6′,7′]cyclohepta[1′,2′:4,5]pyrrolo[2,3-d]pyrimidin-4-ol 2,2,2-trifluoroacetate] were, in that order, 5.98, 6.55, 6.45 and 6.36.
Take `CC(C)n1c2c(c3c(N)ncnc31)-c1noc(C3CC3)c1CN(C(=O)C1CC1)C2` [Example 38, (11-amino-3-cyclopropyl-7-isopropyl-6,7-dihydroisoxazolo[4,3-c]pyrimido[5′,4′:4,5]pyrrolo[3,2-e]azepin-5(4H)-yl)(cyclopropyl)methanone]: the pIC50 was 5.51 at RET kinase V804M, 6.04 against G810S mutant RET kinase, 6.47 against RET kinase Wild Type and 6.19 at G810R mutant RET kinase.
Take `CC(C)(O)[C@H]1C[C@@H](n2c3c(c4c(N)ncnc42)-c2noc(C4CC4)c2C(O)CC3)C1` (some centres unmarked) [Example 138, 11-Amino-3-cyclopropyl-7-((1s,3s)-3-(2-hydroxypropan-2-yl)cyclobutyl)-4,5,6,7-tetrahydroisoxazolo[4″,3″:6′,7′]cyclohepta[1′,2′:4,5]pyrrolo[2,3-d]pyrimidin-4-ol 2,2,2-trifluoroacetate]: the pIC50 was 6.42 on RET kinase V804M, 6.19 on G810S mutant RET kinase, 6.84 against RET kinase Wild Type and 6.57 on G810R mutant RET kinase.
Taken in the same sequence, the figures for `Nc1ncnc2[nH]c3c(c12)-c1noc(C2CC2)c1C(=O)NC3` [Example 66, 11-amino-3-cyclopropyl-6,7-dihydroisoxazolo[4,3-c]pyrimido[5′,4′:4,5]pyrrolo[3,2-e]azepin-4(5H)-one 2,2,2-trifluoroacetate] were 5.17, 5.64, 5.75 and 5.66.
In the case of `CC(C)n1c2c(c3c(N)ncnc31)-c1noc(C3CC3)c1CN(c1ccn(C)n1)C2` [Example 34, 3-cyclopropyl-7-isopropyl-5-(1-methyl-1H-pyrazol-3-yl)-4,5,6,7-tetrahydroisoxazolo[4,3-c]pyrimido[5′,4′:4,5]pyrrolo[3,2-e]azepin-11-amine], the pIC50 on RET kinase V804M is 6.09; at G810S mutant RET kinase it was 6.40; against RET kinase Wild Type, 6.64; against G810R mutant RET kinase it was 6.54.
Taken in the same sequence, the figures for `Nc1ncnc2c1c1c(n2C2CC(F)(F)C2)CCC(O)c2c-1noc2C1CC1` (centres unmarked) [Example 148, 11-amino-3-cyclopropyl-7-(3,3-difluorocyclobutyl)-4,5,6,7-tetrahydroisoxazolo[4″,3″:6′,7′]cyclohepta[1′,2′:4,5]pyrrolo[2,3-d]pyrimidin-4-ol 2,2,2-trifluoroacetate] were 6.67, 6.12, 6.74 and 6.81.
Taken in the same sequence, the figures for `CC(C)n1c2c(c3c(N)ncnc31)-c1noc(C3CC3)c1C(=O)N(CCN1CCS(=O)(=O)CC1)C2` [Example 9, 11-amino-3-cyclopropyl-5-(2-(1,1-dioxidothiomorpholino)ethyl)-7-isopropyl-6,7-dihydroisoxazolo[4,3-c]pyrimido[5′,4′:4,5]pyrrolo[3,2-e]azepin-4(5H)-one] were 6.27, 6.53, 6.99 and 6.65.
Taken in the same sequence, the figures for `CC(C)n1c2c(c3c(N)ncnc31)-c1noc(C3CC3)c1C(=O)N(c1cnn(C)c1)C2` [Example 18, 11-amino-3-cyclopropyl-7-isopropyl-5-(1-methyl-1H-pyrazol-4-yl)-6,7-dihydroisoxazolo[4,3-c]pyrimido[5′,4′:4,5]pyrrolo[3,2-e]azepin-4(5H)-one] were 6.16, 6.40, 6.82 and 6.60.
As to `COc1ccc(CCN2Cc3c(c4c(N)ncnc4n3C(C)C)-c3noc(C4CC4)c3C2=O)cc1` [Example 14, 11-amino-3-cyclopropyl-7-isopropyl-5-(4-methoxyphenethyl)-6,7-dihydroisoxazolo[4,3-c]pyrimido[5′,4′:4,5]pyrrolo[3,2-e]azepin-4(5H)-one], the negative logarithm of the IC50 (pIC50) was 6.06 at RET kinase V804M, 6.53 against G810S mutant RET kinase, 6.95 against RET kinase Wild Type and 6.60 against G810R mutant RET kinase.
Taken in the same sequence, the figures for `CC(C)n1c2c(c3c(N)ncnc31)-c1noc(C3CC3)c1CN(CCO)C2` [Example 40, 2-(11-amino-3-cyclopropyl-7-isopropyl-6,7-dihydroisoxazolo[4,3-c]pyrimido[5′,4′:4,5]pyrrolo[3,2-e]azepin-5(4H)-yl)ethan-1-ol 2,2,2-trifluoroacetate] were 5.66, 6.01, 6.21 and 6.14.
On to `CC(C)n1c2c(c3c(N)ncnc31)-c1noc(C3CC3)c1CN(C)C2` [Example 31, 3-cyclopropyl-7-isopropyl-5-methyl-4,5,6,7-tetrahydroisoxazolo[4,3-c]pyrimido[5′,4′:4,5]pyrrolo[3,2-e]azepin-11-amine], for which the pIC50 at RET kinase V804M was 5.66; against G810S mutant RET kinase, 5.88; against RET kinase Wild Type, 6.24; at G810R mutant RET kinase, 5.88.
On to `Nc1ncnc2c1c1c(n2C2CCOC2)CCC(=O)c2c-1noc2C1CC1` (centres unmarked) [Example 141, 11-Amino-3-cyclopropyl-7-(tetrahydrofuran-3-yl)-6,7-dihydroisoxazolo[4″,3″:6′,7′]cyclohepta[1′,2′:4,5]pyrrolo[2,3-d]pyrimidin-4(5H)-one], for which the pIC50 at RET kinase V804M was 6.38; against G810S mutant RET kinase, 6.39; at RET kinase Wild Type it was 6.86; at G810R mutant RET kinase, 6.68.
`CC(C)n1c2c(c3c(N)ncnc31)-c1cc(C3CC3)nn1C(=O)NC2` [Example 106, 12-Amino-2-cyclopropyl-8-isopropyl-7,8-dihydropyrazolo[1,5-c]pyrimido[5′,4′:4,5]pyrrolo[3,2-e][1,3]diazepin-5(6H)-one]: the figures for the pIC50 on G810S mutant RET kinase, at RET kinase Wild Type and against G810R mutant RET kinase were 5.49, 6.39 and 5.62, respectively.
Regarding `CCC(=O)N1Cc2c(noc2C2CC2)-c2c(n(C(C)C)c3ncnc(N)c23)C1` [Example 37, 1-(11-amino-3-cyclopropyl-7-isopropyl-6,7-dihydroisoxazolo[4,3-c]pyrimido[5′,4′:4,5]pyrrolo[3,2-e]azepin-5(4H)-yl)propan-1-one 2,2,2-trifluoroacetate], the pIC50 against G810S mutant RET kinase was 5.91; at RET kinase Wild Type, 6.50; against G810R mutant RET kinase, 5.89.
On to `Cc1ccc2cc3n(c2c1)C(=O)NCc1c-3c2c(N)ncnc2n1C(C)C` [Example 80, 1-amino-5-isopropyl-11-methyl-6,7-dihydropyrimido[5″,4″:4′,5′]pyrrolo[2′,3′: 5,6][1,3]diazepino[1,7-a]indol-8(5H)-one], for which the negative logarithm of the IC50 (pIC50) is 6.39 against G810S mutant RET kinase, 6.71 at RET kinase Wild Type and 6.49 against G810R mutant RET kinase.
In the case of `Nc1ncnc2[nH]c3c(c12)-c1noc(C2CC2)c1C(=O)CC3` [Example 111, 11-amino-3-cyclopropyl-6,7-dihydroisoxazolo[4″,3″:6′,7′]cyclohepta[1′,2′:4,5]pyrrolo[2,3-d]pyrimidin-4(5H)-one], the pIC50 at RET kinase V804M was 5.21; against G810S mutant RET kinase it was 5.57; against RET kinase Wild Type, 5.46; against G810R mutant RET kinase it was 5.48.
The like results for `CC(=O)N1CCC(n2c3c(c4c(N)ncnc42)-c2noc(C4CC4)c2C(O)CC3)C1` (centres unmarked) [Example 134, 1-(3-(11-amino-3-cyclopropyl-4-hydroxy-5,6-dihydroisoxazolo[4″,3″:6′,7′]cyclohepta[1′,2′:4,5]pyrrolo[2,3-d]pyrimidin-7(4H)-yl)pyrrolidin-1-yl)ethan-1-one 2,2,2-trifluoroacetate] were, in that order, 6.45, 6.31, 6.95 and 6.25.
As for `CC(C)n1c2c(c3c(N)ncnc31)-c1cc3ccc(Cl)cc3n1C(=O)NC2` [Example 84, 1-amino-11-chloro-5-isopropyl-6,7-dihydropyrimido[5″,4″:4′,5′]pyrrolo[2′,3′: 5,6][1,3]diazepino[1,7-a]indol-8(5H)-one], the pIC50 is 6.20 against G810S mutant RET kinase, 6.74 at RET kinase Wild Type and 6.61 at G810R mutant RET kinase.
Taken in the same sequence, the figures for `COc1ccc2cc3n(c2c1)C(=O)NCc1c-3c2c(N)ncnc2n1C(C)C` [Example 79, 1-amino-5-isopropyl-11-methoxy-6,7-dihydropyrimido[5″,4″:4′,5′]pyrrolo[2′,3′: 5,6][1,3]diazepino[1,7-a]indol-8(5H)-one] were 6.23, 6.45 and 6.57.
